Test results reported in patent US7431958B2, “Use of fraction from Cinnamomum zeylanicum for preserving food” (Council of Scientific & Industrial Research, priority 2003, dated 2008).

Assays:
[1] = antioxidant activity using DPPH method
From the text: The water extract obtained in the above methods was screened for antioxidant activity using 1,1-diphenyl-2-picrylhydrazyl (DPPH) [J. Agricultural and Food Chemistry, 50, 81-86, 2002].

[2] = antioxidant activity using β-carotene-linoleate model system; details: β-carotene-linoleate method
From the text: The water extract obtained, was screened for antioxidant activity using β-carotene-linoleate model systems.

COc1ccc(O)c(C(C)(C)C)c1 [BHA, butylated hydroxyanisole]
antioxidant activity ([1]; 25 ppm): 71% | antioxidant activity ([1]; 50 ppm): 94% | antioxidant activity ([2]; 100 ppm): 81% | antioxidant activity ([2]; 200 ppm): 89%
